Data taken from ChEMBL document CHEMBL3885881, “DrugMatrix”.

Organism: Rattus norvegicus
Assay: DrugMatrix - Regimen: Daily Repeat
Format: toxicity, organism-based, Sprague-Dawley
Set-up: regimen Daily Repeat, gender Male, age 6-8 weeks
Settings: in vivo, po, route oral GAVAGE, vehicle .5 % CMC; for BASOPHIL / EOSINOPHIL / ERYTHROCYTE COUNT / HEMATOCRIT / HEMOGLOBIN / LEUKOCYTE COUNT / LYMPHOCYTE / MEAN CORPUSCULAR HEMOGLOBIN / MEAN CORPUSCULAR HEMOGLOBIN CONCENTRATION / MEAN CORPUSCULAR VOLUME / MONOCYTE / NEUTROPHIL / PLATELET COUNT: tissue Blood; for ALANINE AMINOTRANSFERASE / ALBUMIN / ALKALINE PHOSPHATASE / ASPARTATE AMINOTRANSFERASE / BLOOD UREA NITROGEN / CHLORIDE / CHOLESTEROL / CREATINE PHOSPHOKINASE / CREATININE / GLUCOSE / PHOSPHORUS / POTASSIUM / SODIUM / TOTAL BILIRUBIN / TOTAL PROTEIN: tissue Plasma
[1] = 0 mg/kg, 72 h, dose level Control, time 3 day
[2] = 0 mg/kg, 120 h, dose level Control, time 5 day
[3] = 94 mg/kg, 72 h, dose level High, time 3 day
[4] = 94 mg/kg, 120 h, dose level High, time 5 day
[5] = […], 72 h, dose 9.4 mg/Kg, dose level Low, time 3 day
[6] = […], 120 h, dose 9.4 mg/Kg, dose level Low, time 5 day

Compound: O=C(CCCN1CC=C(n2c(=O)[nH]c3ccccc32)CC1)c1ccc(F)cc1 [DROPERIDOL]
- BASOPHIL [1]: 1.52%
- EOSINOPHIL [1]: 0.98%
- ERYTHROCYTE COUNT [1]: 6.96 x10E6/uL
- HEMATOCRIT [1]: 44.65%
- HEMOGLOBIN [1]: 13.62 G/DL
- LEUKOCYTE COUNT [1]: 9.83 x10E3/uL
- LYMPHOCYTE [1]: 76.48%
- MEAN CORPUSCULAR HEMOGLOBIN [1]: 19.57 pg
- MEAN CORPUSCULAR HEMOGLOBIN CONCENTRATION [1]: 30.47 G/DL
- MEAN CORPUSCULAR VOLUME [1]: 64.22 fL
- MONOCYTE [1]: 2.13%
- NEUTROPHIL [1]: 18.6%
- PLATELET COUNT [1]: 1217.17 x10E3/uL
- ALANINE AMINOTRANSFERASE [1]: 41 u/L
- ALBUMIN [1]: 3.77 G/DL
- ALKALINE PHOSPHATASE [1]: 411.83 u/L
- ASPARTATE AMINOTRANSFERASE [1]: 62.83 u/L
- BLOOD UREA NITROGEN [1]: 15.17 mg/dL
- CHLORIDE [1]: 104.33 MEQ/L
- CHOLESTEROL [1]: 71.17 mg/dL
- CREATINE PHOSPHOKINASE [1]: 123.5 u/L
- CREATININE [1]: 0.55 mg/dL
- GLUCOSE [1]: 182.67 mg/dL
- PHOSPHORUS [1]: 11.23 mg/dL
- POTASSIUM [1]: 7.03 MEQ/L
- SODIUM [1]: 148 MEQ/L
- TOTAL BILIRUBIN [1]: 0.57 mg/dL
- TOTAL PROTEIN [1]: 6.85 G/DL
- BASOPHIL [2]: 1.35%
- EOSINOPHIL [2]: 0.43%
- ERYTHROCYTE COUNT [2]: 6.96 x10E6/uL
- HEMATOCRIT [2]: 44.35%
- HEMOGLOBIN [2]: 13.98 G/DL
- LEUKOCYTE COUNT [2]: 9.45 x10E3/uL
- LYMPHOCYTE [2]: 80.83%
- MEAN CORPUSCULAR HEMOGLOBIN [2]: 20.1 pg
- MEAN CORPUSCULAR HEMOGLOBIN CONCENTRATION [2]: 31.52 G/DL
- MEAN CORPUSCULAR VOLUME [2]: 63.72 fL
- MONOCYTE [2]: 2.37%
- NEUTROPHIL [2]: 14.05%
- PLATELET COUNT [2]: 1298 x10E3/uL
- ALANINE AMINOTRANSFERASE [2]: 42.17 u/L
- ALBUMIN [2]: 3.77 G/DL
- ALKALINE PHOSPHATASE [2]: 419 u/L
- ASPARTATE AMINOTRANSFERASE [2]: 66.67 u/L
- BLOOD UREA NITROGEN [2]: 16.67 mg/dL
- CHLORIDE [2]: 103.17 MEQ/L
- CHOLESTEROL [2]: 66.33 mg/dL
- CREATINE PHOSPHOKINASE [2]: 148.33 u/L
- CREATININE [2]: 0.58 mg/dL
- GLUCOSE [2]: 196.83 mg/dL
- PHOSPHORUS [2]: 11.8 mg/dL
- POTASSIUM [2]: 6.47 MEQ/L
- SODIUM [2]: 148.33 MEQ/L
- TOTAL BILIRUBIN [2]: 0.53 mg/dL
- TOTAL PROTEIN [2]: 6.77 G/DL
- BASOPHIL [3]: 2.03%
- EOSINOPHIL [3]: 0.53%
- ERYTHROCYTE COUNT [3]: 7.81 x10E6/uL
- HEMATOCRIT [3]: 49.37%
- HEMOGLOBIN [3]: 15.57 G/DL
- LEUKOCYTE COUNT [3]: 13.33 x10E3/uL
- LYMPHOCYTE [3]: 87.57%
- MEAN CORPUSCULAR HEMOGLOBIN [3]: 20.1 pg
- MEAN CORPUSCULAR HEMOGLOBIN CONCENTRATION [3]: 31.57 G/DL
- MEAN CORPUSCULAR VOLUME [3]: 63.57 fL
- MONOCYTE [3]: 2.1%
- NEUTROPHIL [3]: 7%
- PLATELET COUNT [3]: 1484.33 x10E3/uL
- ALANINE AMINOTRANSFERASE [3]: 35.67 u/L
- ALBUMIN [3]: 4.03 G/DL
- ALKALINE PHOSPHATASE [3]: 335 u/L
- ASPARTATE AMINOTRANSFERASE [3]: 61.67 u/L
- BLOOD UREA NITROGEN [3]: 21.67 mg/dL
- CHLORIDE [3]: 102.33 MEQ/L
- CHOLESTEROL [3]: 79.67 mg/dL
- CREATINE PHOSPHOKINASE [3]: 112.67 u/L
- CREATININE [3]: 0.67 mg/dL
- GLUCOSE [3]: 149 mg/dL
- PHOSPHORUS [3]: 11.77 mg/dL
- POTASSIUM [3]: 7.13 MEQ/L
- SODIUM [3]: 148 MEQ/L
- TOTAL BILIRUBIN [3]: 0.6 mg/dL
- TOTAL PROTEIN [3]: 7.1 G/DL
- BASOPHIL [4]: 1.4%
- EOSINOPHIL [4]: 0.5%
- ERYTHROCYTE COUNT [4]: 8.34 x10E6/uL
- HEMATOCRIT [4]: 50.33%
- HEMOGLOBIN [4]: 16.1 G/DL
- LEUKOCYTE COUNT [4]: 13.23 x10E3/uL
- LYMPHOCYTE [4]: 84.5%
- MEAN CORPUSCULAR HEMOGLOBIN [4]: 19.37 pg
- MEAN CORPUSCULAR HEMOGLOBIN CONCENTRATION [4]: 32.03 G/DL
- MEAN CORPUSCULAR VOLUME [4]: 60.43 fL
- MONOCYTE [4]: 2.13%
- NEUTROPHIL [4]: 10.53%
- PLATELET COUNT [4]: 1440.33 x10E3/uL
- ALANINE AMINOTRANSFERASE [4]: 53 u/L
- ALBUMIN [4]: 3.87 G/DL
- ALKALINE PHOSPHATASE [4]: 248 u/L
- ASPARTATE AMINOTRANSFERASE [4]: 83 u/L
- BLOOD UREA NITROGEN [4]: 23.33 mg/dL
- CHLORIDE [4]: 103 MEQ/L
- CHOLESTEROL [4]: 68 mg/dL
- CREATINE PHOSPHOKINASE [4]: 108.67 u/L
- CREATININE [4]: 0.67 mg/dL
- GLUCOSE [4]: 160.67 mg/dL
- PHOSPHORUS [4]: 12.3 mg/dL
- POTASSIUM [4]: 7.17 MEQ/L
- SODIUM [4]: 149 MEQ/L
- TOTAL BILIRUBIN [4]: 0.67 mg/dL
- TOTAL PROTEIN [4]: 6.93 G/DL
- BASOPHIL [5]: 1.77%
- EOSINOPHIL [5]: 0.47%
- ERYTHROCYTE COUNT [5]: 7.08 x10E6/uL
- HEMATOCRIT [5]: 45.83%
- HEMOGLOBIN [5]: 14.3 G/DL
- LEUKOCYTE COUNT [5]: 15.23 x10E3/uL
- LYMPHOCYTE [5]: 83.7%
- MEAN CORPUSCULAR HEMOGLOBIN [5]: 20.13 pg
- MEAN CORPUSCULAR HEMOGLOBIN CONCENTRATION [5]: 31.1 G/DL
- MEAN CORPUSCULAR VOLUME [5]: 64.77 fL
- MONOCYTE [5]: 1.6%
- NEUTROPHIL [5]: 11.93%
- PLATELET COUNT [5]: 1499.67 x10E3/uL
- ALANINE AMINOTRANSFERASE [5]: 36.67 u/L
- ALBUMIN [5]: 3.67 G/DL
- ALKALINE PHOSPHATASE [5]: 351.67 u/L
- ASPARTATE AMINOTRANSFERASE [5]: 62.33 u/L
- BLOOD UREA NITROGEN [5]: 14 mg/dL
- CHLORIDE [5]: 103.67 MEQ/L
- CHOLESTEROL [5]: 70.33 mg/dL
- CREATINE PHOSPHOKINASE [5]: 125.33 u/L
- CREATININE [5]: 0.6 mg/dL
- GLUCOSE [5]: 162.33 mg/dL
- PHOSPHORUS [5]: 12.83 mg/dL
- POTASSIUM [5]: 7.2 MEQ/L
- SODIUM [5]: 147.67 MEQ/L
- TOTAL BILIRUBIN [5]: 0.5 mg/dL
- TOTAL PROTEIN [5]: 6.57 G/DL
- BASOPHIL [6]: 2.17%
- EOSINOPHIL [6]: 0.4%
- ERYTHROCYTE COUNT [6]: 6.89 x10E6/uL
- HEMATOCRIT [6]: 44.3%
- HEMOGLOBIN [6]: 14.03 G/DL
- LEUKOCYTE COUNT [6]: 11 x10E3/uL
- LYMPHOCYTE [6]: 83.27%
- MEAN CORPUSCULAR HEMOGLOBIN [6]: 20.4 pg
- MEAN CORPUSCULAR HEMOGLOBIN CONCENTRATION [6]: 31.7 G/DL
- MEAN CORPUSCULAR VOLUME [6]: 64.43 fL
- MONOCYTE [6]: 2.07%
- NEUTROPHIL [6]: 11.2%
- PLATELET COUNT [6]: 1298.67 x10E3/uL
- ALANINE AMINOTRANSFERASE [6]: 37.67 u/L
- ALBUMIN [6]: 3.63 G/DL
- ALKALINE PHOSPHATASE [6]: 359 u/L
- ASPARTATE AMINOTRANSFERASE [6]: 62.33 u/L
- BLOOD UREA NITROGEN [6]: 13.33 mg/dL
- CHLORIDE [6]: 101.33 MEQ/L
- CHOLESTEROL [6]: 65 mg/dL
- CREATINE PHOSPHOKINASE [6]: 109 u/L
- CREATININE [6]: 0.5 mg/dL
- GLUCOSE [6]: 191 mg/dL
- PHOSPHORUS [6]: 12.2 mg/dL
- POTASSIUM [6]: 7.17 MEQ/L
- SODIUM [6]: 147.33 MEQ/L
- TOTAL BILIRUBIN [6]: 0.3 mg/dL
- TOTAL PROTEIN [6]: 6.4 G/DL
